Consider five compounds from patent publication US8052961B2, “Highly fluorinated β-amino acids and methods of making and using same” (University of Utah Foundation, priority 2006, dated 2011).

Some results are limits rather than exact numbers.

Data set [1] can be described thus: 1-octanol/water partition coefficient (Poct) of tripeptides.
Experimental: The 1-octanol/water partition coefficients (Poct) of the two tripeptides were evaluated.
To 20 mg of peptide 4 or 5 were added 2 mL of water and 2 mL of 1-octanol. The resulting mixture was shaken with a mixer for 10 min. After the aqueous and the organic phases were fully separated, 50 μL of solution was taken out from each phase for HPLC analysis. To a mixture of 200 μL aqueous solution and 200 μL 1-octanol solution were added 1.8 mL of water and 1.8 mL of 1-octanol. The resulting mixture was shaken with a mixer for 10 min. After the phases were fully separated, 50 μL of solution was taken out from each phase for reversed-phases HPLC analysis.
For data set [2] the following is noted: cited from earlier work.

One may read the melting point as the temperature of the solid-liquid transition. A word on the logP: it is a log measure of how a compound divides between an organic and an aqueous phase. A higher logP goes with a more lipophilic compound.

As for `NCC(COC(C(F)(F)F)(C(F)(F)F)C(F)(F)F)(COC(C(F)(F)F)(C(F)(F)F)C(F)(F)F)C(=O)O`, the melting point fell in the range of 182 to 184 °C.

In turn, `O=C(NCC(COC(C(F)(F)F)(C(F)(F)F)C(F)(F)F)(COC(C(F)(F)F)(C(F)(F)F)C(F)(F)F)C(=O)O)OCC1c2ccccc2-c2ccccc21` yielded a melting point of 104 to 105 °C.

As to `CC(C)(C)OC(=O)NCC(COC(C(F)(F)F)(C(F)(F)F)C(F)(F)F)(COC(C(F)(F)F)(C(F)(F)F)C(F)(F)F)C(=O)O`, the melting point is 128 to 130 °C.

In data set [1], `NC(=O)CNC(=O)C(CNC(=O)CNC=O)(COC(C(F)(F)F)(C(F)(F)F)C(F)(F)F)COC(C(F)(F)F)(C(F)(F)F)C(F)(F)F` [tripeptide 4, Formyl-Gly-βFa-Gly-Amide] registered a logP at 10 min above 1.

As to octreotide, the “in vivo half-life (t1/2)” value in data set [2] is 2 h.
